Read-outs that look alike come from different tables or passages of the source.
Legend:
Test in all cases: Post-emergence efficacy, Method A
Assay type in all cases: in vivo
[1] = system: Ipomoea hederacea (IPOHE); conditions: read-out: Control of weed species after post-emergence application, IPOHE
[2] = system: Chenopodium album (CHEAL); conditions: read-out: Control of weed species after post-emergence application, CHEAL
[3] = system: Amaranthus palmeri (AMAPA); conditions: read-out: Control of weed species after post-emergence application, AMAPA
[4] = system: Lolium perenne (LOLPE); conditions: read-out: Control of weed species after post-emergence application, LOLPE
[5] = system: Digitaria sanguinalis (DIGSA); conditions: read-out: Control of weed species after post-emergence application, DIGSA
[6] = system: Eleusine indica (ELEIN); conditions: read-out: Control of weed species after post-emergence application, ELEIN
[7] = system: Echinochloa crus-galli (ECHCG); conditions: read-out: Control of weed species after post-emergence application, ECHCG
[8] = system: Setaria faberi (SETFA); conditions: read-out: Control of weed species after post-emergence application, SETFA
[9] = 500 g/Ha, 100=total damage to plant, 0=no damage, evaluated after 7 and 14 days

SMILES | pest or weed control at 500 g/ha [1, 9] | pest or weed control at 500 g/ha [2, 9] | pest or weed control at 500 g/ha [3, 9] | pest or weed control at 500 g/ha [4, 9] | pest or weed control at 500 g/ha [5, 9] | pest or weed control at 500 g/ha [6, 9] | pest or weed control at 500 g/ha [7, 9] | pest or weed control at 500 g/ha [8, 9] | pest or weed control at 500 g/ha [1] | pest or weed control at 500 g/ha [2] | pest or weed control at 500 g/ha [3] | pest or weed control at 500 g/ha [4] | pest or weed control at 500 g/ha [5] | pest or weed control at 500 g/ha [6] | pest or weed control at 500 g/ha [7] | pest or weed control at 500 g/ha [8]
O=S(=O)([O-])C[n+]1ccc(-c2ccsn2)cc1 [Compound A42] | 10% | 20% | 90% | 0% | 10% | 0% | 10% | 10% |  |  |  |  |  |  |  | 
O=C(O)CC[n+]1ccc(-c2nc(C(F)(F)F)co2)cc1 [Compound A45] | 0% | 0% | 0% | 0% | 20% | 50% | 10% | 0% |  |  |  |  |  |  |  | 
O=S(=O)([O-])C[n+]1ccc(-c2csnn2)cc1 [Compound A54] | 20% | 20% | 20% | 0% | 10% | 20% | 0% | 0% |  |  |  |  |  |  |  | 
O=S(=O)([O-])CCC[n+]1ccc(-c2noc(C(F)(F)F)n2)cc1 [Compound A15, 3-[4-[5-(trifluoromethyl)-1,2,4-oxadiazol-3-yl]pyridin-1-ium-1-yl]propane-1-sulfonate] | 20% | 0% | 0% | 0% | 30% | 10% | 30% | 30% |  |  |  |  |  |  |  | 
CCOC(=O)C[n+]1ccc(-c2nncs2)cc1 [Compound A49] | 10% | 50% | 10% | 20% | 50% | 20% | 10% | 20% |  |  |  |  |  |  |  | 
CNC(=O)c1nc(-c2cc[n+](CCCS(=O)(=O)[O-])cc2)no1 [Compound A51] | 10% | 60% | 10% | 20% | 50% | 10% | 30% | 30% |  |  |  |  |  |  |  | 
O=S(=O)([O-])C[n+]1ccc(-c2nc(C(F)(F)F)co2)cc1 [Compound A43] | 30% | 40% | 40% | 10% | 30% | 60% | 60% | 20% |  |  |  |  |  |  |  | 
CS(=O)(=O)[N-]C(=O)C[n+]1ccc(-c2ncns2)cc1 [Compound A29] | 90% | 30% | 90% | 40% | 90% | 50% | 90% | 50% |  |  |  |  |  |  |  | 
CP(=O)([O-])C[n+]1ccc(-c2ncns2)cc1 [Compound A10, methyl-[[4-(1,2,4-thiadiazol-5-yl)pyridin-1-ium-1-yl]methyl]phosphinate] |  |  |  |  |  |  |  |  | 50% | 90% | 90% | 40% | 90% | 90% | 90% | 100%

— US20220104493A1, “HERBICIDAL COMPOUNDS” (SYNGENTA CROP PROTECTION AG, priority 2019, published 2022)
